Patent US12187758B2 (ROME Therapeutics, Inc., priority 2022, dated 2025)

Legend:
Type in all cases: cell-based
[1] = Mitochondria toxicity assay with PC3 cells, in-cell ELISA COX-1; conditions: 5 days treatment
Protocol: (§1) Exemplary compounds were tested for inhibition of expression of mitochondria DNA encoded proteins COX-1 […]. SDH-A (succinate dehydrogenase-A) is a control mitochondria protein encoded by nuclear DNA. Reduction in COX-1 expression indicates off target inhibition of mitochondria DNA synthesis which leads to mitochondrial toxicity. Assay procedures and results are described below.
(§2) PC3 cells were purchased from ATCC and cultured in F-12 Kaighn's modified medium (Hyclone), 10% heat-inactivated fetal bovine serum (Invitrogen), 1% Penicillin-Streptomycin (Invitrogen). PC3 cells were treated with a dose titration of a test compound on 96 well plates for 5 days at 37° C., 5% CO2 in a humidified incubator. The treatment plates are duplicated, one for in-cell ELISA for mitochondria proteins and one for cytotoxicity.
(§3) In-cell ELISA was performed to measure mitochondrial proteins using MitoBiogenesis In-Cell ELISA kit (Abcam) per manufacturer's instruction. The medium was aspirated from the compound treated cells, 100 μl per well of 4% paraformaldehyde (Solarbio) was added and cells were incubated at room temperature for 20 minutes. The cells were washed three times with PBS. 100 μl of 0.5% acetic acid was added per cell, and the cells were incubate at room temperature for 5 minutes. Cells were washed once with PBS. 100 μl per well of Permeabilization Buffer was added, and the cells incubate at room temperature for 30 minutes. The permeabilization buffer was removed and 200 μl per well 2× Blocking Buffer was added and the cells were incubated at room temperature for 2 hours. After removing the Blocking Buffer 100 μl per well of primary antibody to SDH-A or COX-1 was added, and the cells were incubated at 4° C. overnight. The primary antibody solution was removed and cells were washed 3 times with the Wash Buffer. 100 μl per well of AP- and HRP-labelled secondary antibodies was added, and the cells were incubated at room temperature for 1 hour. The cells were then washed 4 times with the Wash Buffer. For SDH-A detection, 100 μl per well AP Development Solution was added, and the cells were incubated at room temperature for 10 minutes. Cells were then read on CLARTO star^plus microplate reader (BMG Labtech) for kinetic readings at 405 nm for 5 minutes. […] The cells were then read on CLARTO star^plus microplate reader (BMG Labtech) for kinetic readings at 600 nm for 15 minutes.
(§4) In the table “A” represents values<1.0 μM; “B” represents values from >1.0 μM to ≤10.0 μM; “C” represents values from >10.0 μM to ≤50.0 μM; “D” represents values from >50.0 μM to ≤100.0 μM; and “E” represents values>100.0 μM.

[2] = system: SDH-A (succinate dehydrogenase-A); experiment: Mitochondria toxicity assay with PC3 cells, in-cell ELISA SDH-A; conditions: 5 days treatment
Protocol: as §1, §2, §3, §4

PC3 cells = experiment: Mitochondria toxicity assay with PC3 cells, cytotoxicity (Cell Titer Glo); conditions: Homo sapiens, PC-3, 120 h, 5 days treatment
Protocol: as §2
For the cytotoxicity assay, the medium from the cell viability plate was removed, 50 μL per well of Cell Titer Glo (Promega, G9683) was added. Then the cells incubated for 30 minutes at room temperature. Luminescence was read by Envision (PerkinElmer 2105).
as §4

Row | SMILES | IC50 [1] | IC50 [2] | IC50 (PC3 cells)
1 | Nc1nc(F)nc2c1ncn2[C@H]1C[C@H](O)C(CO)(CO)O1 [Compound 10, ((3S,5R)-5-(6-amino-2-fluoro-9H-purin-9-yl)-3-hydroxytetrahydrofuran-2,2-diyl) dimethanol] | 1 to 10 µM | 1 to 10 µM | 10 to 50 µM
2 | Cc1cn([C@H]2C[C@H](O)[C@](CO)(N=[N+]=[N-])O2)c(=O)[nH]c1=O [Compound 30, 1-((2R,4S,5R)-5-azido-4-hydroxy-5-(hydroxymethyl)tetrahydrofuran-2-yl)-5-methylpyrimidine-2,4(1H,3H)-dione] | > 100 µM | > 100 µM | > 100 µM
3 | CO[C@]1(CO)O[C@@H](n2ccc(N)nc2=O)C[C@@H]1O [Compound 48, 4-amino-1-((2R,4S,5R)-4-hydroxy-5-(hydroxymethyl)-5-methoxytetrahydrofuran-2-yl)pyrimidin-2(1H)-one] | 1 to 10 µM | 1 to 10 µM | 10 to 50 µM
4 | [N-]=[N+]=N[C@]1(CO)O[C@@H](n2ccc(N)nc2=O)C[C@@H]1O [Compound 49, 4-amino-1-((2R,4S,5R)-5-azido-4-hydroxy-5-(hydroxymethyl)tetrahydro-furan-2-yl)pyrimidin-2(1H)-one] | < 1 µM | < 1 µM | < 1 µM
5 | CO[C@H]1C[C@H](n2ccc(N)nc2=O)O[C@@]1(CO)CCl [Compound 54, 4-amino-1-[(2R,4S,5R)-5-(chloromethyl)-5-(hydroxymethyl)-4-methoxyoxolan-2-yl]-3,4-dihydropyrimidin-2-one] | > 100 µM | > 100 µM | > 100 µM
6 | Nc1ccn([C@H]2C[C@@H](O)[C@](CO)(CCl)O2)c(=O)n1 [Compound 59, 4-amino-1-[(2R,4R,5R)-5-(chloromethyl)-4-hydroxy-5-(hydroxymethyl)oxolan-2-yl] pyrimidin-2-one] | > 100 µM | > 100 µM | > 100 µM
7 | Nc1nc(=O)n([C@H]2C[C@H](O)[C@](CO)(CCl)O2)cc1C(F)(F)F [Compound 71, 4-amino-1-((2R,4S,5R)-5-(chloromethyl)-4-hydroxy-5-(hydroxymethyl)tetrahydrofuran-2-yl)-5-(trifluoromethyl)pyrimidin-2(1H)-one] | > 100 µM | > 100 µM | > 100 µM
8 | Nc1ncnn2c([C@H]3C[C@H](O)[C@](CO)(CF)O3)ccc12 [Compound 79, (2R,3S,5R)-5-(4-aminopyrrolo[2,1-f] [1,2,4]triazin-7-yl)-2-(fluoromethyl)-2-(hydroxymethyl) tetrahydrofuran-3-ol] | > 100 µM | > 100 µM | > 100 µM
9 | Nc1nc2c(ncn2[C@@H]2O[C@@](CO)(CF)[C@@H](O)[C@@H]2F)c(=O)[nH]1 [Compound 83, 2-amino-9-((2R,3S,4R,5R)-3-fluoro-5-(fluoromethyl)-4-hydroxy-5-(hydroxymethyl)tetrahydrofuran-2-yl)-1,9-dihydro-6H-purin-6-one] | 10 to 50 µM | 10 to 50 µM | 10 to 50 µM
10 | Nc1nc(F)nc2c1ncn2[C@@H]1O[C@@](CO)(CF)[C@@H](O)[C@@H]1F [Compound 84] | 10 to 50 µM | 50 to 100 µM | 10 to 50 µM
11 | Nc1nc2c(ncn2[C@@H]2O[C@@](CO)(CCl)[C@@H](O)[C@@H]2O)c(=O)[nH]1 [Compound 94, 2-amino-9-[(2R,3S,4S,5R)-5-(chloromethyl)-3,4-dihydroxy-5-(hydroxymethyl)oxolan-2-yl]-1H-purin-6-one] | > 100 µM | > 100 µM | > 100 µM
12 | Nc1nc(=O)n([C@@H]2O[C@@](CO)(C(F)(F)F)[C@@H](O)[C@@H]2O)cc1F [Compound 95, 4-amino-1-((2R,3S,4S,5R)-3,4-dihydroxy-5-(hydroxymethyl)-5-(trifluoromethyl)tetrahydrofuran-2-yl)-5-fluoropyrimidin-2(1H)-one] | > 100 µM | > 100 µM | > 100 µM
13 | Nc1nc(=O)n([C@@H]2O[C@@](CO)(CI)[C@@H](O)[C@@H]2F)cc1F [Compound 129, 4-amino-5-fluoro-1-((2R,3S,4R,5R)-3-fluoro-4-hydroxy-5-(hydroxymethyl)-5-(iodomethyl)tetrahydrofuran-2-yl)pyrimidin-2(1H)-one] | > 100 µM | > 100 µM | > 100 µM
14 | Nc1nc(=O)n([C@@H]2O[C@](/C=C\Cl)(CO)[C@@H](O)[C@@H]2F)cc1F [Compound 132, 4-amino-1-[(2R,3S,4R,5R)-5-(2-chloroethenyl)-3-fluoro-4-hydroxy-5(Z)-(hydroxymethyl)oxolan-2-yl]-5-fluoropyrimidin-2-one] | > 100 µM | > 100 µM | > 100 µM
15 | CSC[C@]1(CO)O[C@@H](n2cc(F)c(N)nc2=O)[C@@H](F)[C@@H]1O [Compound 135, 4-amino-5-fluoro-1-[(2R,3S,4R,5R)-3-fluoro-4-hydroxy-5-(hydroxymethyl)-5-[(methylsulfanyl)methyl]oxolan-2-yl] pyrimidin-2-one] | 1 to 10 µM | 10 to 50 µM | 10 to 50 µM
16 | NC(=O)[C@]1(CO)O[C@@H](n2cc(F)c(N)nc2=O)[C@@H](F)[C@@H]1O [Compound 138, (2R,3R,4S,5R)-5-(4-amino-5-fluoro-2-oxopyrimidin-1-yl)-4-fluoro-3-hydroxy-2-(hydroxymethyl) oxolane-2-carboxamide] | > 100 µM | > 100 µM | > 100 µM
17 | NC[C@]1(CO)O[C@@H](n2cc(F)c(N)nc2=O)[C@@H](F)[C@@H]1O [Compound 139, 4-amino-1-[(2R,3S,4R,5R)-5-(aminomethyl)-3-fluoro-4-hydroxy-5-(hydroxymethyl)oxolan-2-yl]-5-fluoropyrimidin-2-one] | > 100 µM | > 100 µM | > 100 µM
18 | CC(O)[C@]1(CO)O[C@@H](n2cc(F)c(=O)[nH]c2=O)[C@@H](F)[C@@H]1O (stereo partly drawn) [Compound 162, 5-fluoro-1-[(2R,3S,4R,5S)-3-fluoro-4-hydroxy-5-(1-hydroxyethyl)-5-(hydroxymethyl)oxolan-2-yl]-3H-pyrimidine-2,4-dione] | > 100 µM | > 100 µM | > 100 µM
19 | O=c1[nH]c(=O)n([C@@H]2O[C@@](CO)(CCl)[C@@H](O)[C@@H]2F)cc1F [Compound 163, 1-[(2R,3S,4R,5R)-5-(chloromethyl)-3-fluoro-4-hydroxy-5-(hydroxymethyl)oxolan-2-yl]-5-fluoro-3H-pyrimidine-2,4-dione] | > 100 µM | > 100 µM | > 100 µM
20 | N#C[C@]1(CO)O[C@@H](n2cc(F)c(N)nc2=O)[C@@H](F)[C@@H]1O [Compound 166] | > 100 µM | > 100 µM | > 100 µM
